From ChEMBL document CHEMBL3991601, “The target landscape of clinical kinase drugs” (Science, 2017)
The source made the active and inactive calls. Rule as the data show it, for most assays here: actives have a measured Kd and inactives only a lower limit.

Assays:
[1] = molecular target: T1, Acyl-CoA dehydrogenase family member 10 (Homo sapiens, UniProt Q6JQN1)
T1 sequence (Q6JQN1 whole entry): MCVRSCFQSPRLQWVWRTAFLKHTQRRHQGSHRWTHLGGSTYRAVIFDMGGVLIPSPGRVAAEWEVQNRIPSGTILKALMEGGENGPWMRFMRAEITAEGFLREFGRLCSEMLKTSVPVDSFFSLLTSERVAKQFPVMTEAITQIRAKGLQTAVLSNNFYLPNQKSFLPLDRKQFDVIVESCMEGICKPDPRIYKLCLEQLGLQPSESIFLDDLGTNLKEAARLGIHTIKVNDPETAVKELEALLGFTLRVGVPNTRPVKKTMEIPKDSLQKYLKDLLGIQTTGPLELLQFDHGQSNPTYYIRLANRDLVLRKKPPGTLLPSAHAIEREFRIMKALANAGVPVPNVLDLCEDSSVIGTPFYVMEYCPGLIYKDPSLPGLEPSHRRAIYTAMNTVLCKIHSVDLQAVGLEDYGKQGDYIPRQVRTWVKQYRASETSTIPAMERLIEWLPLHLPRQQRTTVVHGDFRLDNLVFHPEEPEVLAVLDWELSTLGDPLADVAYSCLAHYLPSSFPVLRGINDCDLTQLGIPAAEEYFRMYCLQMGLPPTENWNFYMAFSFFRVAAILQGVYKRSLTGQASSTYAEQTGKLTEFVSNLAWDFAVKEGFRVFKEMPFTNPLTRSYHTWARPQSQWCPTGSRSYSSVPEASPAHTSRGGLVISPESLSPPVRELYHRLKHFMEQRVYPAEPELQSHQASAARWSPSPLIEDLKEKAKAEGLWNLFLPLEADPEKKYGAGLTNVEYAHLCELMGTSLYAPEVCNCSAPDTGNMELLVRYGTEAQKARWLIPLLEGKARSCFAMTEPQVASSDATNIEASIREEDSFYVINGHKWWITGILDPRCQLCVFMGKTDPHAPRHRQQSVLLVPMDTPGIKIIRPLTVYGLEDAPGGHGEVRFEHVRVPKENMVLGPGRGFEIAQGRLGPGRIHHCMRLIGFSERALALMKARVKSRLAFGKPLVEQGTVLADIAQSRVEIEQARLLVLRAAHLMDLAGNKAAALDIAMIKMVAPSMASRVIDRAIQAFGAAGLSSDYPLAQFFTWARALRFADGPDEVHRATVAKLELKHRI

[2] = molecular target: BMP-2-inducible protein kinase (Homo sapiens, UniProt Q9NSY1)
Chain of BMP-2-inducible protein kinase (Q9NSY1 whole entry): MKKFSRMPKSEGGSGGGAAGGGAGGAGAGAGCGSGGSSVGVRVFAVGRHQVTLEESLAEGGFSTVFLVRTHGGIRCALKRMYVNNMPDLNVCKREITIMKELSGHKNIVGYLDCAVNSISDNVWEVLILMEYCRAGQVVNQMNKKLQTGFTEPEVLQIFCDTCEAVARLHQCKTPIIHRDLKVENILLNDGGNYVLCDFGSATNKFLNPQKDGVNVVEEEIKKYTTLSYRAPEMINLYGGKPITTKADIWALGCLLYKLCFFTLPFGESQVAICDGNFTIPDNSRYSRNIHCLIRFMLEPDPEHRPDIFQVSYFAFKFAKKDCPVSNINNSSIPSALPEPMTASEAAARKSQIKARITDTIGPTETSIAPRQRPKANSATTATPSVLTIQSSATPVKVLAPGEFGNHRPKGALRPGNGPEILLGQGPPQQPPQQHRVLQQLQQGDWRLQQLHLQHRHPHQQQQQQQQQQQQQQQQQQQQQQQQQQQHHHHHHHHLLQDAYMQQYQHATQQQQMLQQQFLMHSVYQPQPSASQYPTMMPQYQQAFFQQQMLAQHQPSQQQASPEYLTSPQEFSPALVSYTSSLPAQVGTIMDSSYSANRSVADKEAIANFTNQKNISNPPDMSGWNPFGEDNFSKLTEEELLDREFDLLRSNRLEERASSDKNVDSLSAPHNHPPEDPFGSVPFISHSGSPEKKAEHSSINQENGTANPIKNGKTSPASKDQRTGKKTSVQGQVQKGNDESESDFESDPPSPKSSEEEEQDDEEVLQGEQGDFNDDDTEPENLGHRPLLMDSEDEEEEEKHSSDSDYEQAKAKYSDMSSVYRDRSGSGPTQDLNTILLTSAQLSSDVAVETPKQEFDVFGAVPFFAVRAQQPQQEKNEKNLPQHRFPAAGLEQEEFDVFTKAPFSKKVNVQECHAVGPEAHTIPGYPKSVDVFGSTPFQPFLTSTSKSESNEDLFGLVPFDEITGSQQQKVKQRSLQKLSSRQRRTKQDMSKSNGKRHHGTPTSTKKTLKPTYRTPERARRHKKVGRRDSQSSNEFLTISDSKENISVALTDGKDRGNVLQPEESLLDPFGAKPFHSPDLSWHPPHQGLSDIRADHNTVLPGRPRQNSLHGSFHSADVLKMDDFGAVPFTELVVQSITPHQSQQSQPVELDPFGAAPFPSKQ

[3] = molecular target: T2, Interleukin-1 receptor-associated kinase 4 (Homo sapiens, UniProt Q9NWZ3)
T2 sequence (Q9NWZ3 whole entry): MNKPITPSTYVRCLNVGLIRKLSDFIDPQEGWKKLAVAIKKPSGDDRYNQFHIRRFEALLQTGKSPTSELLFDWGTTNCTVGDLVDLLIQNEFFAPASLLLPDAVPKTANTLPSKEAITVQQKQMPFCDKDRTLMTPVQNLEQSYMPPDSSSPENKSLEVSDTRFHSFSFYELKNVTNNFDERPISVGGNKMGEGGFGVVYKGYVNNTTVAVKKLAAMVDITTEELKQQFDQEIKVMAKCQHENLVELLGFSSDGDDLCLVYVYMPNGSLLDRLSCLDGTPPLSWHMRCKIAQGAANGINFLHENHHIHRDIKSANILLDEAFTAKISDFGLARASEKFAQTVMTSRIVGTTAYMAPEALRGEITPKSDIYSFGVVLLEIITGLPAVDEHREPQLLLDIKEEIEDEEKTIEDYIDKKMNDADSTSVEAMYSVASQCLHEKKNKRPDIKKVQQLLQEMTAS

[4] = molecular target: Mitogen-activated protein kinase 10 (Homo sapiens, UniProt P53779)
Chain of Mitogen-activated protein kinase 10 (P53779 whole entry): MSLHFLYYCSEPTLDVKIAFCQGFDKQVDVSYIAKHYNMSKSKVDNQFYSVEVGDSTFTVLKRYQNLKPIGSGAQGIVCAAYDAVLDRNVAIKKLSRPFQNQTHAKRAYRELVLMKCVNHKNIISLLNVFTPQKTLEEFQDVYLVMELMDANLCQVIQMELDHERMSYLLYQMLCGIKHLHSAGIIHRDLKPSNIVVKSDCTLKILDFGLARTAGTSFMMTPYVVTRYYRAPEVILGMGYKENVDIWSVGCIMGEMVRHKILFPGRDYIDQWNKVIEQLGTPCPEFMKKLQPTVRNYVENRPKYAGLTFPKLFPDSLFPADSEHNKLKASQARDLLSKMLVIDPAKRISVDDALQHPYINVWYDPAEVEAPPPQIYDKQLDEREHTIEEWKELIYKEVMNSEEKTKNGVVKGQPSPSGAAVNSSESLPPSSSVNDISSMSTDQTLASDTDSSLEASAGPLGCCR

[5] = molecular target: Ribosomal protein S6 kinase alpha-6 (Homo sapiens, UniProt Q9UK32)
Chain of Ribosomal protein S6 kinase alpha-6 (Q9UK32 whole entry): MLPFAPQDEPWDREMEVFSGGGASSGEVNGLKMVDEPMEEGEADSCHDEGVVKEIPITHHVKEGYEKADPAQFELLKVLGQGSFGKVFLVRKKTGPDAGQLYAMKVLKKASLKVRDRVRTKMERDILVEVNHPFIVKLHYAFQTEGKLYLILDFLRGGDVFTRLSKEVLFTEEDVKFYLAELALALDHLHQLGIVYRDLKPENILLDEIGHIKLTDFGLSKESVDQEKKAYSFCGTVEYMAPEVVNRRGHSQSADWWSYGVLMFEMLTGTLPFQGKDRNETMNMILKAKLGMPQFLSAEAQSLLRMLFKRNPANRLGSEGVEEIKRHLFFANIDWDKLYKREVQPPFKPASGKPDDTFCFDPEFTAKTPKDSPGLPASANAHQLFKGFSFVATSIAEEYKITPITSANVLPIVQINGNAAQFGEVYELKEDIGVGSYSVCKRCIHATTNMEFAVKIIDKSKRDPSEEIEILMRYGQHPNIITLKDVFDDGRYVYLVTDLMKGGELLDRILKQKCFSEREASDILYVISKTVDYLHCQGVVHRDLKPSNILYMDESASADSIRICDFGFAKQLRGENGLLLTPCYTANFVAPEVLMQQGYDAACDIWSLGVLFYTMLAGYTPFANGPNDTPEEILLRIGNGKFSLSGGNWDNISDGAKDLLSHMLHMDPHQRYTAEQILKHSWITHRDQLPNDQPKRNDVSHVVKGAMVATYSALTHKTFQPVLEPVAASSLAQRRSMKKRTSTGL

[6] = molecular target: T3, Serine/threonine-protein kinase TAO2 (Homo sapiens, UniProt Q9UL54)
T3 sequence (Q9UL54 whole entry): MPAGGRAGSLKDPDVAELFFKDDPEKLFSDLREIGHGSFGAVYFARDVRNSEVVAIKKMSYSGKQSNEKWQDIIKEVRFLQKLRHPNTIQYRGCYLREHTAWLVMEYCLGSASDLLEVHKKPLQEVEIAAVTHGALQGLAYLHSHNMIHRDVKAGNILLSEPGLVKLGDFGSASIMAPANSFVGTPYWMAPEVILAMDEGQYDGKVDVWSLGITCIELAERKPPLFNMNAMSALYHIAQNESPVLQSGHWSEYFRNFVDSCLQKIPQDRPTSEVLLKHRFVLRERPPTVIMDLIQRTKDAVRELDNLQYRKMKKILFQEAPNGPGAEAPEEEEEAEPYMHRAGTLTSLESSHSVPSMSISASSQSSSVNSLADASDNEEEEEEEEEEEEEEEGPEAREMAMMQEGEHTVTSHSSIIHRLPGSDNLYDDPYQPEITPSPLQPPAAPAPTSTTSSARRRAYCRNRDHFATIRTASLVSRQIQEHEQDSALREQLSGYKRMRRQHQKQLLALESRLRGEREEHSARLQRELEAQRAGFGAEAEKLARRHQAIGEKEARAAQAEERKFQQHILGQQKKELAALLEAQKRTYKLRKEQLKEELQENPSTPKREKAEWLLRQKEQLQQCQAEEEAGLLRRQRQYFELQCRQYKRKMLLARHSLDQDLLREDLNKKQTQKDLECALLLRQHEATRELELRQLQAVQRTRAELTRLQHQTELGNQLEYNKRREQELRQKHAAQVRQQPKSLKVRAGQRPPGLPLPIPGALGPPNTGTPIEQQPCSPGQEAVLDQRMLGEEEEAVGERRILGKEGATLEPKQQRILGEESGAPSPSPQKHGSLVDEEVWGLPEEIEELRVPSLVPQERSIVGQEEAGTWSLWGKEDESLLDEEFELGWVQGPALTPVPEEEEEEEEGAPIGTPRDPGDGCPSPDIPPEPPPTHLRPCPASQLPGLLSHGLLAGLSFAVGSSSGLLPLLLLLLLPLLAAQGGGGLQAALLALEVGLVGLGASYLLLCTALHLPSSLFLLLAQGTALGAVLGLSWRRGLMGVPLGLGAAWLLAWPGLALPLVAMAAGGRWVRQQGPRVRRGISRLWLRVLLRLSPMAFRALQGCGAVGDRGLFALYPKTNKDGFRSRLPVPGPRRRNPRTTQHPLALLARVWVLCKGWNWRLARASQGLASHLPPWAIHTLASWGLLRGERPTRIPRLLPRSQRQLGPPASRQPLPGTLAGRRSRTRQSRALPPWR

[7] = molecular target: Mitogen-activated protein kinase kinase kinase 20 (Homo sapiens, UniProt Q9NYL2)
Chain of Mitogen-activated protein kinase kinase kinase 20 (Q9NYL2 whole entry): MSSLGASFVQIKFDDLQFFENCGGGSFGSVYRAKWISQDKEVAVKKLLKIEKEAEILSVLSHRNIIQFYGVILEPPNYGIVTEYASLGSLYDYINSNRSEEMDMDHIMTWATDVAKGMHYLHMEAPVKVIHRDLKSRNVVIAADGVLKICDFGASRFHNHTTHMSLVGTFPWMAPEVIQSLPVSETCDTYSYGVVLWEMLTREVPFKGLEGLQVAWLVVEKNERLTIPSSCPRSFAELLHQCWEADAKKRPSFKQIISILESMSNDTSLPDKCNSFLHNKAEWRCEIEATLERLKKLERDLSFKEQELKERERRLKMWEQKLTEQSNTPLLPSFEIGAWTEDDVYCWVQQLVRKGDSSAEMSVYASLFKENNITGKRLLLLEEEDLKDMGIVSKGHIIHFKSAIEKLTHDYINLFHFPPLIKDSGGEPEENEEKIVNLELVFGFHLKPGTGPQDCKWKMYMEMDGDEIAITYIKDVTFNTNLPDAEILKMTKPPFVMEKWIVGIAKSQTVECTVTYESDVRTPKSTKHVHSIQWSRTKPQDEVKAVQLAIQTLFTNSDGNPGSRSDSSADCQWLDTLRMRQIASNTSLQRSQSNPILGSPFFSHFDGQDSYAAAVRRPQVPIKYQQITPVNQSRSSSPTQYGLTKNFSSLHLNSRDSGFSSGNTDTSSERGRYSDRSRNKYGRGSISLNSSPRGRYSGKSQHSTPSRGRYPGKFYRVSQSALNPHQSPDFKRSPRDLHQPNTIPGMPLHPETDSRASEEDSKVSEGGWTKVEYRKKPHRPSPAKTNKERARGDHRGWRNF
Also: in the data inactive means no Kd found up to 30 µM.

| Kd [1] | Kd [2] | Kd [3] | Kd [4] | Kd [5] | Kd [6] | Kd [7] | Compound |
| --- | --- | --- | --- | --- | --- | --- | --- |
| > 30 µM (inactive) | > 30 µM (inactive) | > 30 µM (inactive) | > 30 µM (inactive) | > 30 µM (inactive) | > 30 µM (inactive) | > 30 µM (inactive) | Cc1ccc(S(=O)(=O)Nc2nc3ccccc3nc2Nc2ccc3nsnc3c2)cc1 |
|  | > 30 µM (inactive) | > 30 µM (inactive) | > 30 µM (inactive) | > 30 µM (inactive) | > 30 µM (inactive) | 13.6 µM (active) | CCN1CCN(Cc2ccc(-c3cc4c(N[C@H](C)c5ccccc5)ncnc4[nH]3)cc2)CC1 [AEE-788] |
|  | > 30 µM (inactive) | > 30 µM (inactive) | > 30 µM (inactive) | > 30 µM (inactive) | > 30 µM (inactive) | > 30 µM (inactive) | Cn1ncc(Cl)c1-c1cc(C(=O)N[C@H](CN)Cc2cccc(F)c2)sc1Cl [AFURESERTIB] |
|  | > 30 µM (inactive) | > 30 µM (inactive) | > 30 µM (inactive) | > 30 µM (inactive) | > 30 µM (inactive) | > 30 µM (inactive) | COc1cc(N2CCC(N3CCN(C)CC3)CC2)ccc1Nc1ncnc(Nc2ccccc2S(=O)(=O)C(C)C)n1 [ASP-3026] |
| > 30 µM (inactive) |  | > 30 µM (inactive) | > 30 µM (inactive) | > 30 µM (inactive) | > 30 µM (inactive) | > 30 µM (inactive) | CCS(=O)(=O)N1CC(CC#N)(n2cc(-c3ncnc4[nH]ccc34)cn2)C1 [BARICITINIB] |
| 0.716 µM | 0.007 µM (active) |  | 0.147 µM (active) | > 30 µM (inactive) |  |  | Cc1nc(N)sc1-c1ccnc(Nc2ccc(N3CCOCC3)cc2)n1 [CYC-116] |
| > 30 µM (inactive) |  |  |  |  |  |  | CN1CCN(c2ccc3nc(-c4c(N)c5c(F)cccc5[nH]c4=O)[nH]c3c2)CC1 [DOVITINIB] |
| > 30 µM (inactive) | > 30 µM (inactive) | > 30 µM (inactive) | > 30 µM (inactive) | > 30 µM (inactive) | > 30 µM (inactive) |  | COC(=O)N[C@@H](C)CNc1nccc(-c2cn(C(C)C)nc2-c2cc(Cl)cc(NS(C)(=O)=O)c2F)n1 [ENCORAFENIB] |
| > 30 µM (inactive) | 1.49 µM (active) |  | > 30 µM (inactive) |  |  |  | Cc1cc(Nc2cc(N3CCN(C)CC3)nc(/C=C/c3ccccc3)n2)n[nH]1 [ENMD-2076] |
| > 30 µM (inactive) |  |  |  |  |  |  | CCn1c(-c2nonc2N)nc2c(C#CC(C)(C)O)ncc(OC[C@H]3CCCNC3)c21 [GSK-690693] |
|  | 0.402 µM (active) | > 30 µM (inactive) | > 30 µM (inactive) | > 30 µM (inactive) | > 30 µM (inactive) | > 30 µM (inactive) | O=C1NC(=O)/C(=C/c2ccc3nccc(-c4ccncc4)c3c2)S1 [GSK-1059615] |
| > 30 µM (inactive) | > 30 µM (inactive) | > 30 µM (inactive) |  | > 30 µM (inactive) | > 30 µM (inactive) | > 30 µM (inactive) | COc1cc2nccc(Oc3ccc(NC(=O)NC4CC4)c(Cl)c3)c2cc1C(N)=O [LENVATINIB] |
| > 30 µM (inactive) | 0.039 µM (active) | > 30 µM (inactive) | > 30 µM (inactive) | > 30 µM (inactive) | 3.37 µM (active) |  | C1=C/COCc2cc(ccc2OCCN2CCCC2)Nc2nccc(n2)-c2cccc(c2)COC/1 [PACRITINIB] |
|  | > 30 µM (inactive) | > 30 µM (inactive) | > 30 µM (inactive) | > 30 µM (inactive) | > 30 µM (inactive) | > 30 µM (inactive) | CNC(=O)c1ccc(C)c(-n2c(C)cc(OCc3ccc(F)cc3F)c(Br)c2=O)c1 [PH-797804] |
| > 30 µM (inactive) | > 30 µM (inactive) | > 30 µM (inactive) | > 30 µM (inactive) | > 30 µM (inactive) | > 30 µM (inactive) |  | COc1cc2nccc(Oc3ccc(NC(=O)Nc4cc(C)on4)c(Cl)c3)c2cc1OC [TIVOZANIB] |

| Compound | Kd [1] | Kd [2] | Kd [3] | Kd [4] | Kd [5] | Kd [6] | Kd [7] |
| --- | --- | --- | --- | --- | --- | --- | --- |
| Cc1cn(-c2cc(NC(=O)c3ccc(C)c(Nc4nccc(-c5cccnc5)n4)c3)cc(C(F)(F)F)c2)cn1 [NILOTINIB] | > 30 µM (inactive) |  |  |  |  |  |  |
| O=C(Nc1cccc(Cl)c1)Nc1ncc(CCNc2ncnc3ccsc23)s1 [SNS-314] | > 30 µM (inactive) | > 30 µM (inactive) |  |  | > 30 µM (inactive) | > 30 µM (inactive) |  |
